# Structures can show the parent of a compound that is named as a salt.
# Tested on: ATCC 6633 Bacillus subtilis strain
# Experiment: agar diffusion determination of antibiotic content / biological potency (USP XXII)
# Assay type: cell-based
# Conditions: final product of Example 5, related to USP reference standard
# Method: The quantitative determination of the antibiotic content of the fermentation broth and final product was performed by using the agar diffusion method according to the prescriptions of USP XXII. on the ATCC 6633 Bacillus subtilis strain. The vancomycin potency values were related to the commercially available USP reference standard.
structure (smiles),measurement,value
CN[C@H](CC(C)C)C(=O)N[C@H]1C(=O)N[C@@H](CC(N)=O)C(=O)N[C@H]2C(=O)N[C@H]3C(=O)N[C@H](C(=O)N[C@H](C(=O)O)c4cc(O)cc(O)c4-c4cc3ccc4O)[C@H](O)c3ccc(c(Cl)c3)Oc3cc2cc(c3O[C@@H]2O[C@H](CO)[C@@H](O)[C@H](O)[C@H]2O[C@H]2C[C@](C)(N)[C@H](O)[C@H](C)O2)Oc2ccc(cc2Cl)[C@H]1O [vancomycin hydrochloride],biological potency based on microbiological determination,higher than 968 μg/mg

# Reference: US5223413A, “Process for the preparation of vancomycin” (Biochin Biotechnologial Leanyvallalat, priority 1989, dated 1993)
